Experimental findings from article PMC7655034, “Identification of a dual TAOK1 and MAP4K5 inhibitor using a structure-based virtual screening approach” (Journal of Enzyme Inhibition and Medicinal Chemistry, 2020) are described below.

Several values for one entry are separate records, joined by “and”; a condition that tells them apart may be missing. Identical values can stand only once.

One experiment has as its target T1, MAP4K5 (Homo sapiens, UniProt Q9Y4K4).
T1 construct: purchased Thermo Fisher Scientific (outsourced assay service)
The experiment can be described thus: Enzymatic assay (Z'-LYTE, Thermo Fisher). The settings on record: for inhibition at 10 µM / Inhibition percentage at 10 μM MAP4K5: 10 μM compound, average of two replicates; for inhibition at 10 µM: read-out: Inhibition percentage at 10 μM MAP4K5. Type of experiment: biochemical. As for the experimental part:
(§1) The enzymatic assay was outsourced to Thermo Fisher Scientific to conduct. They used LanthaScreen and Z´-LYTE technology, which were both robust homogeneous assays method by Fluorescence Resonance Energy Transfer (FRET) to evaluate TAOK1 and MAP4K5, respectively. Briefly, the test compound was co-incubated with fluorescein-labelled substrate, kinase, ATP, kinase buffer and development reagent for reaction. After 1 h, the stop solution (EDTA) was added and then the results were determined by a fluorescence reader. The data was shown as an average of two replicates.

Another experiment has as its target T2, TAOK1 (Homo sapiens, UniProt Q7L7X3).
T2 construct: purchased Thermo Fisher Scientific (outsourced assay service)
T2 sequence (Q7L7X3 1-1001): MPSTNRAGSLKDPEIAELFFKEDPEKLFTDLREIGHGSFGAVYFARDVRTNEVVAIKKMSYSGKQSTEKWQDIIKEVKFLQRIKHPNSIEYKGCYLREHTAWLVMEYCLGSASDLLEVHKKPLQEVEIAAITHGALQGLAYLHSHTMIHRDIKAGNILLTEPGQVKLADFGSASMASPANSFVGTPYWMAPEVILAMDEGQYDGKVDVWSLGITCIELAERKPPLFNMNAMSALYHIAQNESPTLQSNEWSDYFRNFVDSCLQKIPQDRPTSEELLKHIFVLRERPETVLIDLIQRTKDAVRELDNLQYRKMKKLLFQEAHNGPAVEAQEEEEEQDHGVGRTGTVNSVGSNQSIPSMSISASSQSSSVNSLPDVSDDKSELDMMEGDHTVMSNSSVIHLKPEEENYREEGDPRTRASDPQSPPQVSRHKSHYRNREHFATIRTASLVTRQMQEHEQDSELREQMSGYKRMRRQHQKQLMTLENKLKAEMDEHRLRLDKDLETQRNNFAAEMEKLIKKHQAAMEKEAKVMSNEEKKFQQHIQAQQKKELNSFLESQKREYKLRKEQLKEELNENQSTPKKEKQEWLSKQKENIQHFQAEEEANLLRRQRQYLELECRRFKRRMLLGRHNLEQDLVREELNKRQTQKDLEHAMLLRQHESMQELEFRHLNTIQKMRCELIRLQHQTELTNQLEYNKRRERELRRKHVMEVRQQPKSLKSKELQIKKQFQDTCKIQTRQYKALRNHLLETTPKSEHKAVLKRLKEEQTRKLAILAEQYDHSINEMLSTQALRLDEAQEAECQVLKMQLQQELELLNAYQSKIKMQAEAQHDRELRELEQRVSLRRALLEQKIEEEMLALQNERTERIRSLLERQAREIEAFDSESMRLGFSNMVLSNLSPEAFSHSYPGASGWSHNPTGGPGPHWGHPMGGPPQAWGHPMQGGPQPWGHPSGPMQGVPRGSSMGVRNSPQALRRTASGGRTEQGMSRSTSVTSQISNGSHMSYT
The experiment can be described thus: Enzymatic assay (LanthaScreen, Thermo Fisher). Type of experiment: biochemical. The settings on record: for inhibition at 10 µM / Inhibition percentage at 10 μM TAOK1: 10 μM compound, average of two replicates; for inhibition at 10 µM: read-out: Inhibition percentage at 10 μM TAOK1. How it is done:
as §1
(In general: In TR-FRET formats the signal depends on donor and acceptor labels being close together.)

The test system of experiment [1] is panel of around 70 kinases. The experiment in a line: Kinase selectivity (Thermo Fisher SelectScreen kinome panel). Type of experiment: biochemical. The settings on record: concentration selected based on IC50 values. As for the experimental part:
The kinase selectivity of selected compounds was performed by Thermo Fisher Select Screen service. A kinome screen occurred across a panel of roughly 70 kinases. Conditions and analyses are available online (www.thermofisher.com/selectscreen).
To evaluate the selectivity of the inhibitors identified in this study, a biochemical assay was conducted by ThermoFisher Scientific. A panel of around 70 kinases from different kinase families as well as all available members of the STE kinase family, was selected for testing (Supplemental Figure 3). The concentration of the compound was selected based on their IC50 values. […] The target kinase in this study, MAP4K5 and TAOK1, belong to the STE20 kinase family. Of the kinases inhibited by compounds 1 and 2, we found eight and three of the kinases to belong to the STE20 kinase family. Together, this implies that the inhibitors identified in this study are selective towards the STE20 kinase family.

In a further experiment the test system is HCT116, HT29 and H1299. The experiment can be described thus: Single-concentration SRB and MTT assays in cancer cell lines. Type of experiment: cell-based, Human. The settings on record: for Effect in cell-based experiments: HCT116, HT-29, H1299. How it is done: (§2) Human colorectal cancer cell lines HCT116, HT-29 and human lung cancer cell line, H1299 were purchased from the Bioresource Collection and Research Centre (BCRC, Taiwan) and were incubated either in McCoy’s 5 A medium or RPMI-1640 medium (Thermo Fisher Scientific, Walthma, MA, USA), supplemented with 10% foetal bovine serum and 1% Penicillin-Streptomycin-Amphotericin B Solution (Biological Industries, Kibbutz Beit-Haemek, Israel) at 37 °C in a humidified atmosphere with 5% CO2.
(§3) Cell viability was determined by MTT (3–(4,5-dimethylthiazol-2-yl)-2,5-diphenyltetrazolium bromide, Sigma Chemical Co, St. Louis, MO, USA) assay. Cells were seeded in 96-well plates at a density of 5,000 cells/well in a regular culture medium overnight. Then, the cells were treated with various concentrations of indicated compounds for 72 h. After that, the medium was removed, 100 µL MTT solution (0.5 mg/ml in phosphate-buffered saline, PBS) was added to each well and then incubated for 1 h at 37 °C. The insoluble formazan dyes, representing the active mitochondrial dehydrogenase in live cells, were dissolved in the dimethyl sulfoxide (DMSO). The absorbance was analysed by an ELISA reader (Beckman Coulter, Brea, CA, USA) at 550 nm.
(§4) SRB (sulforhodamine B, Sigma Chemical Co, St Louis, MO, USA) assay was used to analyse cell proliferation. Cells were seeded in 96-well plates at a density of 5000 cells/well and then treated with various concentrations of indicated compounds for 48 h. Cells were fixed with 10% TCA (trichloroacetic acid), washed with PBS, and stained with 100 µL SRB solution (0.4% SRB in 1% acetic acid) for 15 min. Then, cells were washed three times with 1% acetic acid and dissolved in the trizma base solution (10 mM). The absorbance was measured by an ELISA reader (Beckman Coulter Diagnostics, Brea, CA, USA) at […].
Background: Tetrazolium dyes change colour on reduction, which living cells bring about.

Experiment [2] deals with H1299 cells. The experiment in a line: MTT cell viability assay. Type of experiment: cell-based. The settings on record: Homo sapiens, NCI-H1299, 72 h, read-out: IC50 (cell survival). How it is done: as §2, §3
For experiment [3], the system named is HCT116 cells. The experiment can be described thus: MTT cell viability assay. The settings on record: Homo sapiens, HCT-116, 72 h, read-out: IC50 (cell survival). Type of experiment: cell-based. How it is done:
as §2, §3

The subject of experiment [4] is HT29 cells. The experiment in a line: MTT cell viability assay. In kind it is cell-based. The settings on record: Homo sapiens, HT-29, 72 h, read-out: IC50 (cell survival). How it is done:
as §2, §3

In experiment [5] the test system is H1299 cells. The experiment can be described thus: SRB cell proliferation assay. Type of experiment: cell-based. The settings on record: Homo sapiens, NCI-H1299, 48 h, read-out: GI50 (50% of growth inhibition). As for the experimental part:
as §2, §4

Experiment [6] concerns HCT116 cells. The experiment can be described thus: SRB cell proliferation assay. In kind it is cell-based. The settings on record: Homo sapiens, HCT-116, 48 h, read-out: GI50 (50% of growth inhibition). As for the experimental part:
as §2, §4

The subject of experiment [7] is HT29 cells. The experiment in a line: SRB cell proliferation assay. The settings on record: Homo sapiens, HT-29, 48 h, read-out: GI50 (50% of growth inhibition). In kind it is cell-based. How it is done: as §2, §4
The subject of a further experiment is HT-29 cells. The experiment can be described thus: Cell cycle distribution by flow cytometry. In kind it is cell-based, Human. As for the experimental part:
The cell cycle distribution was measured by flow cytometry. HT-29 cells were treated with or without the indicated concentrations of compound 1 for 24 or 48 h or 72 h. The cells were harvested by trypsinizing and fixed in ice-cold 75% ethanol for 1 h at −20 °C. The samples were washed with PBS and resuspended in the proper amount of DNA extraction buffer, containing 0.2 M Na2HPO4 and 0.1 M citric acid pH 7.8, for 30 min. Then the cells were washed again with PBS and stained with propidium iodide solution containing 100 µg/ml RNaseA, 80 µg/ml propidium iodide and 0.1% Triton X-100, which were all in PBS. Finally, cell cycle distribution was determined and performed by utilising BD Accuri™ and C6 Software (BD Biosciences, Franklin Lakes, NJ, USA).
A general note: Flow cytometry measures light scatter and fluorescence of single cells or particles in a stream.

T1 sequence (Q9Y4K4 whole entry): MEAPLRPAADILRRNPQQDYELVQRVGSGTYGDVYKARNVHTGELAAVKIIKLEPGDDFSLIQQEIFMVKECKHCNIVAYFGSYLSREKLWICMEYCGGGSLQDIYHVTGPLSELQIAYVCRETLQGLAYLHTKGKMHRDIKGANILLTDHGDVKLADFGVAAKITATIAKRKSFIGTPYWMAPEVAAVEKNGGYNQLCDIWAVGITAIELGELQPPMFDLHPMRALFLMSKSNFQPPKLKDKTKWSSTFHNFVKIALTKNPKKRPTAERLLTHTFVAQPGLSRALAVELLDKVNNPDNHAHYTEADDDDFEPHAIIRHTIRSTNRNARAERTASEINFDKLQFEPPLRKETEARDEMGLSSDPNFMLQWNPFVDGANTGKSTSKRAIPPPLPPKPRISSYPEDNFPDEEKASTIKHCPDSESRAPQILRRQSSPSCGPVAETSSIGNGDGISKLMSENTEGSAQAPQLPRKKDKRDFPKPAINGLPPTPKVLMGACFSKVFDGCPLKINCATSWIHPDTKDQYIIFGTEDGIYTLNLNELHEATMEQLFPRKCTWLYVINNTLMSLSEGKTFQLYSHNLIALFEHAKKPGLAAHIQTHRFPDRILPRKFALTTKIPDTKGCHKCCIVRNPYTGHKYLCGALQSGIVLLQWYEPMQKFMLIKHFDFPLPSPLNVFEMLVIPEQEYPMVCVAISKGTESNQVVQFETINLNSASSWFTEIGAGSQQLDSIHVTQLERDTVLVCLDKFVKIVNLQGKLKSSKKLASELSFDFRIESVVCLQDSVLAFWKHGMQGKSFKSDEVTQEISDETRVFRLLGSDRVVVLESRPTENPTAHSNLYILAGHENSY

Broadly, the inhibition is the drop in the measured response relative to a control, in per cent. As to `CC(=O)Nc1ccc(Nc2nc(Cl)nc(Nc3ccc(NC(C)=O)cc3)n2)cc1` [Compound 6], the results for the inhibition at 10 µM on MAP4K5 and at TAOK1 were 41% and 12%, respectively.

In general, IC50 refers to the concentration that gives 50% inhibition. For the compound `Nc1ncnc2nc(-c3ccc(C(=O)c4ccc([N+](=O)[O-])cc4)cc3)[nH]c12` [Compound 3], the “Number of kinases inhibited in panel” value in [1] was determined as 23 kinases. Also, at MAP4K5, half-maximal inhibition (IC50) was put at 6.28 µM, the “Inhibition percentage at 10 μM MAP4K5” value is 51% and the inhibition at 10 µM is no less than 50%. Besides, in the experiment with HCT116, HT29 and H1299, the “Effect in cell-based experiments” value is “limited effects”. Besides, on TAOK1, the midpoint of inhibition, the IC50, lay at 5.3 µM; the “Inhibition percentage at 10 μM TAOK1” value was found to be 63%; the inhibition at 10 µM is no less than 50%.

Consider `CC1=C(C(=O)Nc2cccc3c2C(=O)NC3=O)CC(C(=O)Nc2cccc3c2C(=O)NC3=O)=C(C)N1` [Compound 7], for which the inhibition at 10 µM at MAP4K5 was 47%; on TAOK1, 4%.

As for `O=C(Nc1nc2ccccc2[nH]1)c1ccc(C(=O)Nc2nc3ccccc3[nH]2)cc1` [Compound 5], the inhibition at 10 µM at MAP4K5 turned out to be 44%; on TAOK1, 1%.

Broadly, the GI50 is the concentration that inhibits growth by half. In the case of `CCN1CCN(CCNc2nccc(-c3c(-c4cccc(O)c4)nc4sccn34)n2)S1(=O)=O` [Compound 1], in experiment [1], the “Number of inhibited kinases belonging to the STE20 kinase family” value is “eight”. Besides, the “Number of kinases inhibited in panel” value in experiment [1] is recorded as “nine”. Besides, the IC50 on MAP4K5 was 2.25 µM; in the experiment on H1299 cells [2] it was 23.6 µM; with HCT116 cells [3], 13.3 µM; with HT29 cells [4] it was 13.3 µM; against TAOK1, 4.15 µM. For the same compound, the “Inhibition percentage at 10 μM MAP4K5” value on MAP4K5 is ≥ 50% and 84%. For the same compound, the figures for the GI50 in the experiment on H1299 cells [5], with HCT116 cells [6] and with HT29 cells [7] were 19.2 µM, 3.9 µM and 6.8 µM, respectively. The “Cancer cell proliferation (SRB) at 10 µM and survival (MTT) at 30 µM” value with HCT116, HT29 and H1299 (10 µM for 48 h (SRB), 30 µM for 72 h (MTT), HCT116, HT29, H1299) was “significantly inhibited”. Also, in the experiment on HT-29 cells (HT29, 24 h treatment), the “Number of G0/G1-phase cells” value is “increased in a concentration-dependent manner”. Also, the Cell cycle effect entry in the experiment with HT-29 cells (HT-29, 24 h) is on record as “arrested cancer cells at the G0/G1 phase”. Moreover, the “Inhibition percentage at 10 μM TAOK1” value at TAOK1 was ≥ 50% and 74%.

Take `Nc1nc(N)c2nc(-c3ccc(O)cc3)c(-c3ccc(O)cc3)nc2n1` [Compound 2]: in experiment [1], the “Number of inhibited kinases belonging to the STE20 kinase family” value is given as “three” and the “Number of kinases inhibited in panel” value was “five”. At MAP4K5, the IC50 amounted to 2 µM; the “Inhibition percentage at 10 μM MAP4K5” value is ≥ 50% and 77%. For the same compound, in the experiment with HCT116, HT29 and H1299, the “Effect in cell-based experiments” value is on record as “limited effects”. For the same compound, at TAOK1, the IC50 stood at 1.83 µM; the “Inhibition percentage at 10 μM TAOK1” value was ≥ 50% and 84%.

With `Nc1nnc(N)c2nc(-c3ccccc3)c(-c3ccccc3)nc12` [Compound 4], the inhibition at 10 µM on MAP4K5 was 54%; on TAOK1, 19%.
